From patent publication US20180213771A1, “COMPOSITION, METHOD FOR PRODUCING COMPOSITION, AND PESTICIDE COMPOSITION” (Sumitomo Chemical Company, Limited, priority 2015, published 2018)

Test: Water solubility of the agrochemical active compound alone at 25° C.
Type: physicochemical

Row | SMILES | water solubility
1 | CC1CC(C)(C)c2cccc(NC(=O)c3cn(C)nc3C(F)F)c21 (centres unmarked) [agrochemical active compound A, N-(1,1,3-trimethylindan-4-yl)-1-methyl-3-difluoromethylpyrazole-4-carboxylic acid amide] | about 20 ppm
2 | CCS(=O)(=O)c1cccnc1-c1nc2cc(S(=O)(=O)C(F)(F)F)ccc2o1 [agrochemical active compound B, 2-[3-(Ethanesulfonyl)pyridin-2-yl]-5-(trifluoromethanesulfonyl)benzoxazole] | about 6 ppm
3 | Cc1cccc(-n2nnn(C)c2=O)c1COc1ccn(-c2ccc(Cl)cc2)n1 [agrochemical active compound C, 1-[2-({[1-(4-Chlorophenyl)-H-pyrazol-3-yl]oxy}methyl)-3-methylphenyl]-4-methyl-5-oxo-4,5-dihydro-1H-tetrazole] | about 0.03 ppm
4 | CCNc1nc(CC)c(C(=O)NC(C#N)c2cccs2)s1 (centres unmarked) [ethaboxam, reference compound] | about 5 ppm
5 | C#CCN1C(=O)COc2cc(F)c(N3C(=O)C4=C(CCCC4)C3=O)cc21 [flumioxazin, reference compound] | about 2 ppm
